These results are taken from patent US11364203B2, “Process for forming active domains dispersed in a matrix” (Bend Research, Inc., priority 2014, dated 2022).

Data set [1] in a line: Solubility in water. It is filed as physicochemical.
Data set [2] can be described thus: Solubility in acetone. Particulars: acetone at 25° C. The format is physicochemical.

The structures appear in SMILES notation. Values after ≈ are worked out from the molar mass of the structure shown.

Broadly, the solubility is the concentration that dissolves in the medium under given conditions. Higher therefore signals much dissolved substance.

Regarding `CCC(=O)O[C@]1(C(=O)SCF)[C@H](C)C[C@H]2[C@@H]3C[C@H](F)C4=CC(=O)C=C[C@]4(C)[C@@]3(F)[C@@H](O)C[C@@]21C` [Fluticasone, (6S,8S,9R,10S,11S,13S,14S,16R,17R)-6,9-difluoro-17-(((fluoromethyl)thio)carbonyl)-11-hydroxy-10,13,16-trimethyl-3-oxo-6,7,8,9,10,11,12,13,14,15,16,17-dodecahydro-3H-cyclopenta[a]phenanthren-17-yl propionate], the “solubility in water (in words)” value in data set [1] (water) is listed as “practically insoluble in water”. The compound also returned a solubility in data set [1] (water at 25° C.) of less than 1 µg/mL. Besides, in data set [2], the solubility in acetone came out at 9000 µg/mL (≈ 18 mM).
